For one series, the system named is West Nile virus. Nature of the series: anti-West Nile virus activity of xanthine analogs in HEK293 cells. The class given is cell-based. The note with it: HEK293, read-out: EC90 (effective concentration to inhibit 90% of virus).
Series [1] is described as follows: cell viability assay (cytotoxicity) in HEK293 cells. The class given is cell-based. The note with it: human, read-out: CC50 (50% cytotoxicity concentration).

The record followed here is patent US11578073B2, “Xanthine analogs as potent anti-West Nile viral agents” (Southern Research Institute, priority 2019, dated 2023).

Regarding `Cc1ccc(C)c(CN2CCN(c3nc4c(c(=O)[nH]c(=O)n4C)n3Cc3ccccc3C(F)(F)F)CC2)c1` [Compound 12, 8-(4-(2,5-Dimethylbenzyl)piperazin-1-yl)-3-methyl-7-(2-(trifluoromethyl)benzyl)-3,7-dihydro-1H-purine-2,6-dione], the EC90 in the series with West Nile virus worked out at 1.1 µM. The CC50 in series [1] was 12 µM. For `Cn1c(=O)[nH]c(=O)c2c1nc(N1CCC(c3ccccc3)CC1)n2Cc1ccccc1F` [Compound 56, 7-(2-Fluorobenzyl)-3-methyl-8-(4-phenylpiperidin-1-yl)-3,7-dihydro-1H-purine-2,6-dione], in that order: 2.4 µM and 10.7 µM. For `Cn1c(=O)[nH]c(=O)c2c1nc(N1CCC(C)(C)CC1)n2Cc1ccccc1F` [Compound 52, 8-(4,4-Dimethylpiperidin-1-yl)-7-(2-fluorobenzyl)-3-methyl-3,7-dihydro-1H-purine-2,6-dione], in that order: 3.9 µM and > 30 µM. Consider `Cn1c(=O)[nH]c(=O)c2c1nc(N1CCN(Cc3ccc(C(F)(F)F)cc3)CC1)n2Cc1ccccc1F` [Compound 34, 7-(2-Fluorobenzyl)-3-methyl-8-(4-(4-(trifluoromethyl)benzyl)piperazin-1-yl)-3,7-dihydro-1H-purine-2,6-dione], for which the EC90 with West Nile virus was determined as 9.4 µM. For the same compound, the CC50 in series [1] is > 30 µM.

As to `Cn1c(=O)[nH]c(=O)c2c1nc(N1CCN(Cc3ccc(C(C)(C)C)cc3)CC1)n2Cc1ccccc1C(F)(F)F` [Compound 16, 8-(4-(4-(tert-Butyl)benzyl)piperazin-1-yl)-3-methyl-7-(2-(trifluoromethyl)benzyl)-3,7-dihydro-1H-purine-2,6-dione], the EC90 with West Nile virus was 1.2 µM. For the same compound, in series [1], the CC50 came out at 12.4 µM. For `Cn1c(=O)[nH]c(=O)c2c1nc(N1CCN(Cc3ccc(C(C)(C)C)cc3)CC1)n2Cc1ccncc1F` [Compound 20, 8-(4-(4-(tert-Butyl)benzyl)piperazin-1-yl)-7-((3-fluoropyridin-4-yl)methyl)-3-methyl-3,7-dihydro-1H-purine-2,6-dione], in that order: 2.6 µM and 22.1 µM. For `CC(C)(C)c1ccc(CN2CCN(c3nc4[nH]c(=O)[nH]c(=O)c4n3Cc3ccccc3F)CC2)cc1` [Compound 64, 8-(4-(4-(tert-butyl)benzyl)piperazin-1-yl)-7-(2-fluorobenzyl)-3,7-dihydro-1H-purine-2,6-dione], in that order: 9 µM and 10 µM. As for `Cn1c(=O)[nH]c(=O)c2c1nc(N1CCN(c3ccccn3)CC1)n2Cc1ccccc1F` [Compound 33, 7-(2-Fluorobenzyl)-3-methyl-8-(4-(pyridin-2-yl)piperazin-1-yl)-3,7-dihydro-1H-purine-2,6-dione], the EC90 with West Nile virus is > 10 µM.

As for `Cc1ccc(C)c(CNCCNc2nc3c(c(=O)[nH]c(=O)n3C)n2Cc2ccccc2F)c1` [Compound 63, 8-((2-((2,5-dimethylbenzyl)amino)ethyl)amino)-7-(2-fluorobenzyl)-3-methyl-3,7-dihydro-1H-purine-2,6-dione], the EC90 in the series with West Nile virus is > 10 µM. Still for that read-out and setting: in the case of `Cn1c(=O)[nH]c(=O)c2c1nc(N1CCN(C(=O)c3ccc(C(C)(C)C)nc3)CC1)n2Cc1ccccc1F` [Compound 45, 8-(4-(6-(tert-Butyl)nicotinoyl)piperazin-1-yl)-7-(2-fluorobenzyl)-3-methyl-3,7-dihydro-1H-purine-2,6-dione] it was > 10 µM. On to `Cn1c(=O)[nH]c(=O)c2c1nc(N1CCN(CCc3ccc(C(C)(C)C)cc3)CC1)n2Cc1ccccc1F` [Compound 47, 8-(4-(4-(tert-Butyl)phenethyl)piperazin-1-yl)-7-(2-fluorobenzyl)-3-methyl-3,7-dihydro-1H-purine-2,6-dione], for which, in the series with West Nile virus, the EC90 stood at 13.6 µM. `Cn1c(=O)[nH]c(=O)c2c1nc(N1CCC(Cc3cccnc3)CC1)n2Cc1ccccc1F` [Compound 62, 7-(2-Fluorobenzyl)-3-methyl-8-(4-(pyridin-3-ylmethyl)piperidin-1-yl)-3,7-dihydro-1H-purine-2,6-dione]: in the series on West Nile virus, the EC90 was determined as 12.4 µM. On the same count and under the same terms, in the case of `Cn1c(=O)[nH]c(=O)c2c1nc(N1CCN(C(C)(C)C)CC1)n2Cc1ccccc1F` [Compound 24, 8-(4-(tert-Butyl)piperazin-1-yl)-7-(2-fluorobenzyl)-3-methyl-3,7-dihydro-1H-purine-2,6-dione] it was > 10 µM. For the compound `Cn1c(=O)[nH]c(=O)c2c1nc(N1CCC(Cc3ccc(C#N)cc3)CC1)n2Cc1ccccc1F` [Compound 59, 4-((1-(7-(2-Fluorobenzyl)-3-methyl-2,6-dioxo-2,3,6,7-tetrahydro-1H-purin-8-yl)piperidin-4-yl)methyl)benzonitrile], in the series on West Nile virus, the EC90 is > 10 µM.

Consider `Cn1c(=O)[nH]c(=O)c2c1nc(N1CCN(C3CCC3)CC1)n2Cc1ccccc1F` [Compound 25, 8-(4-Cyclobutylpiperazin-1-yl)-7-(2-fluorobenzyl)-3-methyl-3,7-dihydro-1H-purine-2,6-dione], for which the EC90 with West Nile virus is > 10 µM. Regarding `Cc1ccc(C)c(CN2CCN(c3nc4c([nH]3)c(=O)[nH]c(=O)n4C)CC2)c1` [Compound 7, 8-(4-(2,5-Dimethylbenzyl)piperazin-1-yl)-3-methyl-3,7-dihydro-1H-purine-2,6-dione], the EC90 in the series with West Nile virus was > 10 µM. Consider `Cc1ccc(C)c(CCN2CCN(c3nc4c(c(=O)[nH]c(=O)n4C)n3Cc3ccccc3F)CC2)c1` [Compound 46, 8-(4-(2,5-Dimethylphenethyl)piperazin-1-yl)-7-(2-fluorobenzyl)-3-methyl-3,7-dihydro-1H-purine-2,6-dione], for which the EC90 in the series on West Nile virus is 10.2 µM. The same measure, in the same setting: next, `Cn1c(=O)[nH]c(=O)c2c1nc(N1CCNCC1)n2Cc1ccccc1F` [Compound 21, 7-(2-Fluorobenzyl)-3-methyl-8-(piperazin-1-yl)-3,7-dihydro-1H-purine-2,6-dione]: > 10 µM; `Cn1c(=O)[nH]c(=O)c2c1nc(N1CCN(c3ccc(Cl)cc3F)CC1)n2Cc1ccccc1F` [Compound 31, 8-(4-(4-Chloro-2-fluorophenyl)piperazin-1-yl)-7-(2-fluorobenzyl)-3-methyl-3,7-dihydro-1H-purine-2,6-dione]: > 10 µM; `Cn1c(=O)[nH]c(=O)c2c1nc(N1CCC(Cc3cc(F)cc(F)c3)CC1)n2Cc1ccccc1F` [Compound 61, 8-(4-(3,5-Difluorobenzyl)piperidin-1-yl)-7-(2-fluorobenzyl)-3-methyl-3,7-dihydro-1H-purine-2,6-dione]: > 10 µM. `Cn1c(=O)[nH]c(=O)c2c1nc(N1CCN(c3ccc(C#N)cn3)CC1)n2Cc1ccccc1F` [Compound 32, 6-(4-(7-(2-Fluorobenzyl)-3-methyl-2,6-dioxo-2,3,6,7-tetrahydro-1H-purin-8-yl)piperazin-1-yl)nicotinonitrile]: the EC90 with West Nile virus is > 10 µM. Still for that read-out and setting: in the case of `Cn1c(=O)[nH]c(=O)c2c1nc(N1CCC(F)(F)C1)n2Cc1ccccc1F` [Compound 51, 8-(3,3-Difluoropyrrolidin-1-yl)-7-(2-fluorobenzyl)-3-methyl-3,7-dihydro-1H-purine-2,6-dione] it was > 10 µM; in that of `Cn1c(=O)[nH]c(=O)c2c1nc(N1CCC(C(F)(F)F)CC1)n2Cc1ccccc1F` [Compound 55, 7-(2-Fluorobenzyl)-3-methyl-8-(4-(trifluoromethyl)piperidin-1-yl)-3,7-dihydro-1H-purine-2,6-dione], > 10 µM. Still for that read-out and setting: in the case of `Cn1c(=O)[nH]c(=O)c2c1nc(N1CCC(C(C)(C)C)CC1)n2Cc1ccccc1F` [Compound 54, 8-(4-(tert-Butyl)piperidin-1-yl)-7-(2-fluorobenzyl)-3-methyl-3,7-dihydro-1H-purine-2,6-dione] it was 1.5 µM; in that of `Cn1c(=O)[nH]c(=O)c2c1nc(N1CCN(CC(=O)c3ccc(C(C)(C)C)cc3)CC1)n2Cc1ccccc1F` [Compound 49, 8-(4-(2-(4-(tert-butyl)phenyl)-2-oxoethyl)piperazin-1-yl)-7-(2-fluorobenzyl)-3-methyl-3,7-dihydro-1H-purine-2,6-dione], > 10 µM. For the compound `Cn1c(=O)[nH]c(=O)c2c1nc(N1CCC(Cc3ccc(F)cc3)CC1)n2Cc1ccccc1F` [Compound 60, 7-(2-Fluorobenzyl)-8-(4-(4-fluorobenzyl)piperidin-1-yl)-3-methyl-3,7-dihydro-1H-purine-2,6-dione], the EC90 with West Nile virus was > 10 µM.

As for `Cn1c(=O)[nH]c(=O)c2c1nc(N1CCN(C3CC3)CC1)n2Cc1ccccc1F` [Compound 23, 8-(4-Cyclopropylpiperazin-1-yl)-7-(2-fluorobenzyl)-3-methyl-3,7-dihydro-1H-purine-2,6-dione], the EC90 with West Nile virus is > 10 µM.

On to `Cc1ccc(C)c(CC(=O)N2CCN(c3nc4c(c(=O)[nH]c(=O)n4C)n3Cc3ccccc3F)CC2)c1` [Compound 48, 8-(4-(2-(2,5-Dimethylphenyl)acetyl)piperazin-1-yl)-7-(2-fluorobenzyl)-3-methyl-3,7-dihydro-1H-purine-2,6-dione], for which the EC90 in the series on West Nile virus was > 10 µM.

For the compound `Cn1c(=O)[nH]c(=O)c2c1nc(N1CCC(F)(F)CC1)n2Cc1ccccc1F` [Compound 53, 8-(4,4-Difluoropiperidin-1-yl)-7-(2-fluorobenzyl)-3-methyl-3,7-dihydro-1H-purine-2,6-dione], the EC90 with West Nile virus is > 10 µM. On to `Cn1c(=O)[nH]c(=O)c2c1nc(N1CCN(c3ccc(C(C)(C)C)cc3)CC1)n2Cc1ccccc1F` [Compound 29, 8-(4-(4-(tert-Butyl)phenyl)piperazin-1-yl)-7-(2-fluorobenzyl)-3-methyl-3,7-dihydro-1H-purine-2,6-dione], for which the EC90 in the series on West Nile virus is > 10 µM. On the same count and under the same terms, next, `Cc1ccc(C)c(CN2CCN(c3nc4c(c(=O)[nH]c(=O)n4C)n3Cc3cccnc3)CC2)c1` [Compound 10, 8-(4-(2,5-Dimethylbenzyl)piperazin-1-yl)-3-methyl-7-(pyridin-3-ylmethyl)-3,7-dihydro-1H-purine-2,6-dione]: > 10 µM; `Cn1c(=O)[nH]c(=O)c2c1nc(N1CCC(c3ccc(C#N)cc3)CC1)n2Cc1ccccc1F` [Compound 58, 4-(1-(7-(2-Fluorobenzyl)-3-methyl-2,6-dioxo-2,3,6,7-tetrahydro-1H-purin-8-yl)piperidin-4-yl)benzonitrile]: > 10 µM.
